Reference: patent US4228187A, “Alkyl and cycloalkylthiophenylalkylaminoalkanols, their salts and the preparation thereof” (priority 1973, dated 1980)
“Also recorded” adds a separate entry of the source. Where two headings read alike, the source gives them in different places.

Assays:
[1] = test system: occluding thrombosis of the femoral artery; assay: Prevention of arterial thrombosis in dogs; type: in vivo, dog; conditions: for n dogs with occluding thrombosis: controls 10 of 16, * α = 0.05; for incidence of occluding thrombosis of the femoral artery (in words): suloctidil 5 times 5 mg/kg i.m., acetylsalicylic acid 5 times 100 mg/kg p.o.
Method: In animals, 1-(4-isopropylthiophenyl)-2-n-octylaminopropanol reduces thromboformation in arteries and veins.
Thrombosis was induced in the femoral
artery of anesthetized dogs by a 30 min perfusions, in a
catheterized area of the vessel, of a solution of pronase.
Drugs administrations were made at 24 h intervals, for 5 days
the last dosage being given 30 min before anesthesia.

DL50 mouse p.o. = conditions: in vivo, po, limits of reliability (p : 0.95) in brackets
From the text: (1) the limits of reliability (p : 0.95) are given in brackets.

[2] = test system: spontaneously hypertensive rat; assay: Antihypertensive activity (spontaneously hypertensive rat); type: in vivo; conditions: 15 mg/kg per os
Method: (3) spontaneously hypertensive rat; 15 mg/kg per os;
± reduction of systolic pressure up to 10 mm of Hg
+ reduction of systolic pressure of 10 to 20 mm Hg
++ reduction of systolic pressure of at least 20 mm of Hg

Hist. = assay: Antispasmodic activity, Hist.
Ac.chol. = assay: Antispasmodic activity, Ac.chol.
BaCl2 = assay: Antispasmodic activity, BaCl2
guinea pig atria's = assay: Protective activity against anoxia (guinea pig atria); set-up: key: scale: + = 10 to 20% increase in survival time; conditions: increase in survival time
From the text: (5) guinea pig atria's;
+ = increase in survival time of 10 to 20%

[3] = test system: peripheral vasodilatatory activity; assay: Vasodilatory effect after intraarterial injection in dog; type: in vivo
Method: (1) intraarterial injection in dog (5 animals) 10, 20 and 30 μg/kg.
(2) maximum vasodilatory effect in mm of Hg.
(3) and (4) expressed in seconds.

cholesterol biosynthesis = assay: Inhibition of cholesterol biosynthesis in vitro (rat liver); type: cell-based; conditions: for inhibition at 100 µM / inhibition at 10 µM: Rattus norvegicus, rat liver, mean; for inhibition at 100 µM: 10^-4 M; for inhibition at 10 µM: 10^-5 M; for inhibition of cholesterol biosynthesis (in words): in vitro
From the text: |Inhibition of cholesterol biosynthesis in vitro (rat liver). In- |hibitory effect of suloctidil and clofibrate on the incorpora- |tion of 1-^14 [NT] and 2-^14 C-mevalonate (MVA). |are mean values and range, expressed in % of inhibition. Unless |otherwise stated, n = 3.

[4] = test system: thrombosis of the hepatic veins; assay: Prevention of deep veins thrombosis in rats; type: in vivo, rat; conditions: for n rats with score 2: control 1; for n rats with score 3: control 2; for n rats with score 1: control 12, * α = 0.05; for n rats with score 0: control 13, ** α = 0.01; for thrombosis of the hepatic veins (in words): rats fed hyperlipidemic diet 3 months, endotoxin
Method: (see table VI given below).
Thrombosis in the hepatic veins were in-
duced in rats fed an hyperlipidemic diet for 3 months by i.v.
injection of endotoxin (lipopolysaccharide B from Salmonella
Sulcoctidil was administered into the diet. The importance of the
thrombosis assessed by scoring the subsequent red
hepatic infarcts according to their number and surface.

[5] = test system: vasoconstrictions induced by norepinephrine and angiotensine in the femoral circulation; assay: Inhibition of vasoconstrictions in the femoral circulation of dogs; set-up: species or system dog; conditions: in vivo, FIG. 1: i.a. 10 μg/kg/min, listed as suloctidil
From the text: The vasoconstrictions are induced by i.a. norepinephrine (n=10) or angiotensine (n=8) during solvent (C) or drug (T) infusion.
Vertical bars are standard errors of the means and * or *** indicate statistically significant differences from the corresponding control values at the thresholds α=0.05 and 0.001 respectively.

[6] = test system: peripheral and cerebral circulations; assay: Blood flow in peripheral and cerebral circulations after i.v. or oral administration; type: in vivo; conditions: mice or dogs
[7] = test system: vascular contractile cell; assay: Vascular antispasmodic activity: inhibition of induced vasoconstrictions in vitro and in vivo
[8] = test system: catecholamines and methylxanthine induced lipolysis; assay: Antilipolytic activity in vitro in rat epididymal fat; type: cell-based
lipoproteinlipases = assay: Inhibitory effect on lipoproteinlipases; type: biochemical
[9] = test system: experimental type II hyperlipidemia; assay: Experimental type II hyperlipidemia in monkeys; type: in vivo, monkey
[10] = Blood viscosity and plasma fibrinogen in geriatric patients (pilot studies); type: in vivo, human; conditions: long-term treatment
platelet functions = assay: Platelet antiaggregating properties in vitro and in vivo
[11] = test system: ADP, L-epinephrine, collagen and Thrombofax induced aggregation; assay: Ex-vivo platelet aggregation after oral administration to healthy volunteers; set-up: species or system human
Method: (§1) After a single oral intake of 200 mg the effect lasts for at least 6 h. Repeated administration of 1-(4-isopropylthiophenyl)-2-n-octylaminopropanol seems to optimalize its anti-platelet activity. […] Moreover, investigations on its mode of action indicate that the mechanism involved are quantitatively and qualitatively different from these of the other known anti-platelet agents.

[12] = Prothrombine levels in patients under oral anti-coagulants therapy; type: in vivo, human; conditions: 900 mg daily with long-term oral anti-coagulants
Method: as §1

Bleeding time in man = type: in vivo, human; conditions: repeated administration
Method: as §1

[13] = test system: platelets emboli triggered by ADP; assay: Platelets emboli triggered by ADP in mice or rats; type: in vivo
From the text: Since platelet aggregation is considered to be of paramount importance in thrombus formation, this anti-platelet activity of 1-(4-isopropylthiophenyl)-2-n-octylaminopropanol (suloctidil) is likely to explain its anti-thrombotic properties.

[14] = AA, read-out: Inhibition of incorporation of 1-^14 C-acetate (AA)
[15] = MVA, read-out: Inhibition of incorporation of 2-^14 C-mevalonate (MVA)

CC(=O)Oc1ccccc1C(=O)O [Acetylsalicylic acid, reference compound]
n dogs with occluding thrombosis ([1]; 5 × 100 mg/kg p.o., n = 10): 1 | incidence of occluding thrombosis of the femoral artery (in words) [1]: also effective in these conditions

CCCCCCCCNC(C)C(O)c1ccc(SC(C)C)cc1 (centres unmarked) [No 2, 1-(4-isopropylthiophenyl)-2-n-octylaminopropanol]
LD50 (DL50 mouse p.o.): 3700 mg/kg | Anti-hypertensive activity [2]: 0 | Antispasmodic activity CE 100, Hist. (Hist.): 100 μ g γ 60 ml | Antispasmodic activity CE 100, Ac.chol. (Ac.chol.): 100 μ g γ 60 ml | Antispasmodic activity CE 100, BaCl2 (BaCl2): 100 μ g γ 60 ml | Protective activity against anoxia (guinea pig atria's): 0 | peripheral vasodilatatory activity compared with papaverine [3]: greater degree of activity than papaverine | Amplitude (maximum vasodilatory effect) ([3]; 10 μg/kg): 42 mm of Hg | Duration of effect ([3]; 10 μg/kg): 226 s | Half-life (of vasodilatory effect) ([3]; 10 μg/kg): 1.57 min | Amplitude (maximum vasodilatory effect) ([3]; 20 μg/kg): 59 mm of Hg | Duration of effect ([3]; 20 μg/kg): 299 s | Half-life (of vasodilatory effect) ([3]; 20 μg/kg): 2.32 min | Amplitude (maximum vasodilatory effect) ([3]; 30 μg/kg): 67 mm of Hg | Duration of effect ([3]; 30 μg/kg): 390 s | Half-life (of vasodilatory effect) ([3]; 30 μg/kg): 2.63 min | inhibition at 100 µM (cholesterol biosynthesis; [14]): 49.4% | inhibition at 10 µM (cholesterol biosynthesis; [14]): 27.5% | inhibition at 100 µM (cholesterol biosynthesis; [15]): 25.9% | inhibition at 10 µM (cholesterol biosynthesis; [15]): 9.9% | inhibition of cholesterol biosynthesis (in words) (cholesterol biosynthesis): strong inhibitor of cholesterol biosynthesis; also recorded: more specific than that of standard compounds like clofibrate | inhibition of cholesterol biosynthesis (in words) (cholesterol biosynthesis; listed as suloctidil): markedly inhibits the biosynthesis of cholesterol | n dogs with occluding thrombosis ([1]; 5 × 5 mg/kg i.m., n = 16): 3 | incidence of occluding thrombosis of the femoral artery (in words) [1]: significantly lower | n rats with score 2 ([4]; 10 mg/kg/day in diet): 0 | n rats with score 3 ([4]; 10 mg/kg/day in diet): 0 | n rats with score 1 ([4]; 10 mg/kg/day in diet): 4 | n rats with score 0 ([4]; 10 mg/kg/day in diet): 25 | n rats with score 2 ([4]; 25 mg/kg/day in diet): 0 | n rats with score 3 ([4]; 25 mg/kg/day in diet): 0 | n rats with score 1 ([4]; 25 mg/kg/day in diet): 5 | n rats with score 0 ([4]; 25 mg/kg/day in diet): 23 | thrombosis of the hepatic veins (in words) [4]: protection is still conferred by a 10 mg/kg oral dose | thrombosis of the hepatic veins (in words) ([4]; listed as suloctidil): markedly less frequent and less developped | inhibition of vasoconstrictions in the femoral circulation [5]: potent inhibitor of vasoconstrictions; also recorded: more active than standard agents like papaverine and cinnarizine | increase in blood flow in peripheral and cerebral circulations [6]: increase in blood flow in both peripheral and cerebral circulations | vascular antispasmodic activity and vasodilating action [7]: potent vascular antispasmodic activity and vasodilating action | inhibition of vasoconstrictions ([7]; in vitro and in vivo, calcium, norepinephrine, 5-hydroxytryptamine and angiotensine): inhibits, in vitro and in vivo, vasocontrictions induced by various agents like calcium, norepinephrine, 5-hydroxytryptamine and angiotensine | antilipolytic activity [8]: potent antilipolytic activity | direct inhibitory effect on lipoproteinlipases (lipoproteinlipases): direct inhibitory effect on the activity of different lipoproteinlipases | hypocholesterolemic and normolipoproteinemic effects [9]: hypocholesterolemic and "normolipoproteinemic" effects observed in vivo | plasma fibrinogen levels [10]: parallel reduction of the plasma fibrinogen levels | reduction of blood hyperviscosity ([10]; therapeutic dosage regimen): about 10% | platelet antiaggregating properties (platelet functions): potent platelet antiaggregating properties | platelet antiaggregating properties (platelet functions; listed as suloctidil): platelet anti-aggregating properties | inhibition of induced platelet aggregation ([11]; ex-vivo, single oral administration, 200 mg or more, healthy volunteers): strongly inhibits ADP, L-epinephrine, collagen and Thrombofax induced aggregation | duration of anti-aggregating effect ([11]; single oral intake of 200 mg): at least 6 h | prothrombine levels [12]: does not markedly decrease prothrombine levels | bleeding time (Bleeding time in man): does not prolong bleeding time in man | activity compared with acetyl salicyclic acid ([13]; at the same dose): as active as acetyl salicyclic acid | formation of platelets emboli triggered by ADP ([13]; oral, mice or rats): blocked or decreased the formation of platelets emboli triggered by ADP
